Measurements taken from patent publication US20260184675A1, “CHIRAL ISOMERIC SULFITE COMPOUND AND APPLICATION THEREOF” (Chengdu Hanova BioSciences Co., Ltd, priority 2024, published 2026).

Tested on: eggs of Tetranychus cinnabarinus
Assay: Effects of sulfite compounds 1-30 and 1′-30′ on hatching of eggs of Tetranychus cinnabarinus at 100 ppm, leaf disc method
Type: in vivo
Details: 7 days after insecticide delivery
Protocol: • (1) Preparation of leaf discs containing eggs: 20 female adult mites of Tetranychus cinnabarinus were transferred onto leaf discs of Vicia faba with a diameter of 2.0 cm (with wetted filter paper at the bottom), then covered it with a lidded culture dish and cultivated under moisturizing conditions, the adult mites were removed within 36 hours and microscopic examination and counting were performed on leaf discs containing eggs. • (2) Investigation of egg population base: Before pesticide soaking, a microscopic examination was conducted on the egg basic number of each leaf disc, with 2 replicates set for each treatment. • (3) Pesticide soaking treatment: The leaf butterflies loaded with mite eggs were soaked in clear water and sulfite compounds for 10 seconds, respectively, then taken out and cultivated under moisturizing conditions. Each treatment should be repeated for no less than 3 times. • (4) Cultivation and observation: The […] were cultivated under normal conditions. Five days after insecticide delivery, the hatching status of mite eggs was investigated. • Note: The temperature and humidity conditions of the constant temperature and humidity incubator after the treatment should be controlled so as to avoid excessive temperature differences, which may cause generation and dripping of condensate water in the culture dish, resulting in abnormal death of eggs due to soaking in water; it is also necessary to ensure sufficient strong ambient light, without directing irradiating the leaves. • (5) Survey of Results: The experimental materials of each treatment group were regularly hydrated and moisturized, and the hatching of eggs was observed. On the 7th day after insecticide delivery, the number of hatched eggs for each treatment was recorded, and the survey of results was recorded in the original notebook. According to the experimental requirements and characteristics of agents, the survey time can be shortened or extended.
• 1) Surveying and recording the number of hatched eggs for each treatment. • 2) Photographing and recording whether there was any pesticide damage to the leaf discs of Vicia faba. • 3) Recording the developmental status of experimental mite eggs, behavior status of nymph mites, including abnormal phenomena such as delayed or stopped development of mite eggs, difficulty in breaking hull for nymph mites, or painful struggles after hatching, etc. • (6) Calculation method: Based on the survey data, the prevention and control effect of each treatment was calculated according to the following formula, and the calculation results were kept to two decimal places. […]

Structure (SMILES) | Hatching rate (%), Replicate 2 (replicate 2) [%] | Hatching rate (%), Replicate 3 [%]
CC(COS(=O)OCCF)Oc1cc(Cl)ccc1Cl (stereo not shown) [Compound 7] | 8.15 | 
CC(COc1cc(Cl)ccc1Cl)OS(=O)OCCBr (stereo not shown) [Compound 9′] |  | 15.15
CC(C)(COS(=O)OCCBr)Oc1ccc(Cl)cc1Cl (stereo not shown) [Compound 12′] |  | 10.39
O=C(OCCF)OC1COCC1Oc1ccc(Cl)cc1Cl (stereo not shown) [Compound 25] |  | 0.00
